Measurements as given in the supplement of paper PMC10307832.

Key:
Test in all cases: relative viability (nuclei count vs DMSO), 5 days (fraction); higher = more cells survive
Selisistat + Pemetrexed = compound: C1CC(C2=C(C1)C3=C(N2)C=CC(=C3)Cl)C(=O)N [Selisistat] + Nc1nc2[nH]cc(CCc3ccc(C(=O)N[C@@H](CCC(=O)O)C(=O)O)cc3)c2c(=O)[nH]1 [Pemetrexed] (partner 0.2 µM)
Procedure, shortened: (§1)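 Nuclei were stained with Hoechst during a one-step fixation (final 0.05% Triton X-100, 1% formaldehyde, 1 ug/ml Hoechst) carried out 5 days after dosing, then counted on 4× images. The cells, lung cancer lines in 1536-well plates, had been dosed by pin tool the day after seeding with one drug alone or a fixed anchor-drug dose plus five library-drug doses (not always all listed) in √10 steps. Relative viability is the nuclei count in treated wells divided by that in vehicle wells, and each value is the median of duplicate plates.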

Selisistat + Decitabine = compound: C1CC(C2=C(C1)C3=C(N2)C=CC(=C3)Cl)C(=O)N [Selisistat] + Nc1ncn([C@H]2C[C@H](O)[C@@H](CO)O2)c(=O)n1 [Decitabine] (partner 2 µM)
Procedure, shortened: as §1

Serdemetan + Linsitinib = compound: c1ccc2c(CCNc3ccc(Nc4ccncc4)cc3)c[nH]c2c1 [Serdemetan] + C[C@]1(O)C[C@@H](c2nc(-c3ccc4ccc(-c5ccccc5)nc4c3)c3c(N)nccn32)C1 [Linsitinib] (partner 1 µM)
Procedure, shortened: as §1

Selisistat + Phenformin = compound: C1CC(C2=C(C1)C3=C(N2)C=CC(=C3)Cl)C(=O)N [Selisistat] + N=C(N)NC(=N)NCCc1ccccc1 [Phenformin] (partner 250 µM)
Procedure, shortened: as §1

## UMC-11
Selisistat + Pemetrexed; first compound 0.4 µM
  relative viability: 0.767
Selisistat + Pemetrexed; first compound 1.265 µM
  relative viability: 0.749
Selisistat + Pemetrexed; first compound 4 µM
  relative viability: 0.844
Selisistat + Pemetrexed; first compound 12.65 µM
  relative viability: 0.754
Selisistat + Pemetrexed; first compound 40 µM
  relative viability: 0.759
Selisistat + Decitabine; first compound 0.4 µM
  relative viability: 0.604
Selisistat + Decitabine; first compound 1.265 µM
  relative viability: 0.688
Selisistat + Decitabine; first compound 4 µM
  relative viability: 0.646
Selisistat + Decitabine; first compound 12.65 µM
  relative viability: 0.676
Selisistat + Decitabine; first compound 40 µM
  relative viability: 0.637
Serdemetan + Linsitinib; first compound 0.04 µM
  relative viability: 1.03
Serdemetan + Linsitinib; first compound 0.1265 µM
  relative viability: 0.902
Serdemetan + Linsitinib; first compound 0.4 µM
  relative viability: 0.873
Serdemetan + Linsitinib; first compound 1.265 µM
  relative viability: 0.701
Serdemetan + Linsitinib; first compound 4 µM
  relative viability: 0.828
Selisistat + Phenformin; first compound 0.4 µM
  relative viability: 0.337
Selisistat + Phenformin; first compound 1.265 µM
  relative viability: 0.303
Selisistat + Phenformin; first compound 4 µM
  relative viability: 0.302
Selisistat + Phenformin; first compound 12.65 µM
  relative viability: 0.288
Selisistat + Phenformin; first compound 40 µM
  relative viability: 0.303
